Data on 18 compounds can be found in US20040018150A1, “Prodrugs of phosphonate nucleotide analogues and methods for selecting and making same” (priority 2003, published 2004).

Series [1] concerns HIV-1. To be noted: anti-HIV-1; from Mulato and Cherrington, Antiviral Research 36, 91 (1997); cited from earlier work.
The test system of series [2] is HIV-1. Put plainly: microbe, parasite or virus in culture.
In series [3] the test system is HIV-1.
The nature of series [4]: Stability in human plasma. Particulars: 37° C., TBS pH 7.5. It is filed as in vitro ADME. The procedure:
(§1) The in vitro metabolism and stability of separated diastereomers were determined in PLCE, MT-2 extract and human plasma. A biological sample listed below, 80 μL, was transferred into a screw-capped centrifuge tube and incubated at 37° C. for 5 min. A solution containing 0.2 mg/mL of the test compound in a suitable buffer, 20 μL, was added to the biological sample and mixed. The reaction mixture, 20 μL, was immediately sampled and mixed with 60 μL of methanol containing 0.015 mg/mL of 2-hydroxymethylnaphthalene as an internal standard for HPLC analysis. The sample was taken as the time-zero sample. Then, at specific time points, the reaction mixture, 20 μL, was sampled and mixed with 60 μL of methanol containing the internal standard. The mixture thus obtained was centrifuged at 15,000 G for 5 min and the supernatant was analyzed with HPLC under the conditions described below.
(3) Human plasma (pooled normal human plasma from George King Biomedical Systems, Inc.)
In the study for human plasma, the test compound was dissolved in TBS. TBS (tris-buffered saline, Sigma) contains 0.05 M Tris, 0.0027 M potassium chloride, and 0.138 M sodium chloride. pH 7.5 at 37° C.
(§2) The HPLC analysis was carried out under the following conditions.

A short description of series [5]: Stability / hydrolysis in MT-2 cell extract. Format: in vitro ADME. Particulars: 37° C., HEPES buffer pH 7.4. How it is done: as §1
(2) MT-2 cell extract was prepared from MT-2 cells according to the published procedure [A. Pompon, I. Lefebvre, J.-L. Imbach, S. Kahn, and D. Farquhar, “Antiviral Chemistry & Chemotherapy”, 5:91-98 (1994)] except for using HEPES buffer described below as the medium.
In the study for MT-2 cell extracts, the test compound was dissolved in HEPES buffer. HEPES buffer contains 0.010 M HEPES, 0.05 M potassium chloride, 0.005 M magnesium chloride, and 0.005 M dl-dithiothreitol. pH 7.4 at 37° C.
as §2

Series [6] relates to PLCE (porcine liver carboxyesterase). Put plainly: in vitro. Format: in vitro ADME. To be noted: 37° C., PBS pH 7.4. How it is done:
as §1
(1) PLCE (porcine liver carboxyesterase from Sigma, 160 u/mg protein, 21 mg protein/mL) diluted 20 fold with PBS (phosphated-buffered saline).
In the study for PLCE, the test compound was dissolved in PBS. PBS (phosphate-buffered saline, Sigma) contains 0.01 M phosphate, 0.0027 M potassium chloride, and 0.137 M sodium chloride. pH 7.4 at 37° C.
as §2

For series [7] the following is noted: for PMPA AUC in PBMC Mean / PMPA AUC in Plasma Mean: dog, in vivo, po; for PBMC/Plasma Exposure Ratio / Prodrug in Plasma: dogs, oral, 10 mg-equivalent of PMPA/kg. The procedure: Formulations. The prodrugs were formulated as solutions in 50 mM citric acid within 0.5 hour prior to dose. All compounds used in the studies were synthesized by Gilead Sciences. The following lots were used:
Dose Administration and Sample Collection. The in-life phase of this study was conducted in accordance with the recommendations of the “Guide for the Care and Use of Laboratory Animals” (National Institutes of Health publication 86-23) and was approved by an Institutional Animal Care and Use Committee. Fasted male beagle dogs (10±2 kg) were used for the studies. Each drug was administered as a single dose by oral gavage (1.5-2 ml/kg). The dose was 10 mg-equivalent of PMPA/kg. For PBMCs, blood samples were collected at 0 (pre-dose), 2,8, and 24 h post-dose. […] Blood (1.0 ml) was processed immediately for plasma by centrifugation at 2,000 rpm for 10 min. Plasma samples were frozen and maintained at […] until analyzed.
Peripheral Blood Mononuclear Cell (PBMC) preparation. Whole blood (8 ml) drawn at specified time points was mixed in equal proportion with phosphate buffered saline (PBS), layered onto 15 ml of Ficoll-Paque solution (Pharmacia Biotech,) and centrifuged at 400×g for 40 min. PBMC layer was removed and washed once with PBS. Formed PMBC pellet was reconstituted in 0.5 ml of PBS, cells were resuspended, counted using hemocytometer and maintained at […] until analyzed. The number of cells multiplied by the mean single-cell volume was used in calculation of intracellular concentrations. […] Agents Chemother.
Determination of PMPA and Prodrugs in plasma and PBMCs. […] Derivatized samples were then evaporated to dryness and reconstituted in 100 μl of water for HPLC analysis.
Before intracellular PMPA could be determined by HPLC, the large amounts of adenine related ribonucleotides present in the PBMC extracts had to be removed by selective oxidation.
The HPLC system was comprised of a P4000 solvent delivery system with AS3000 autoinjector and F2000 fluorescence detector (Tlermo Separation, San Jose, Calif.). […] The mobile phases used were: A, 5% acetonitrile in 25 mM potassium phosphate buffer with 5 mM tetrabutyl ammonium bromide (TBABr), pH 6.0; B, 60% acetonitrile in 25 mM potassium phosphate buffer with 5 mM TBABr, pH 6.0. The flow rate was 2 ml/min and the column temperature was maintained at 35° C. by a column oven. The gradient profile was 90% A/10% B for 10 min for PMPA and 65%A/35%B for 10 min for the prodrug. […] Data was acquired and stored by a laboratory data acquisition system (PeakPro, Beckman, Allendale, N.J.).
Pharmacokinetic Calculations. […] The AUC values were calculated using the trapezoidal rule.

Series [8] relates to MT-2 cells. Put plainly: Cytotoxicity in MT-2 cells. Particulars: cell culture.
Series [9] relates to MT-2 cells.
The nature of series [10]: Incubation of radiolabeled PMPA prodrugs or PMPA in human whole blood; metabolites in plasma, PBMCs and RBCs. Particulars: human, 1 h. Format: in vitro ADME.
Method: After 1 hour, plasma, red blood cells (RBCs) and peripheral blood mononuclear cells (PBMCs) were isolated and analyzed by HPLC with radiometric detection.
Another series is described as follows: in vitro. To be noted: human.
Where [11] appears, read: Human immunodeficiency virus 1, MT2.
Setting [12] is: activity of diastereomer A versus B.
Where [13] appears, read: cell culture anti-HIV-1 activity, separated diastereomers and 1:1 mixtures.

Read-outs that look alike come from different tables or passages of the source.

Regarding `Nc1ccn([C@@H]2CS[C@H](CO)O2)c(=O)n1` [Compound 3TC], the IC50 (in general, the concentration that inhibits the measured activity by half) in the series on HIV-1 [1] is 1.8 ± 0.25 µM.
Turning to `CC(C)OC(=O)[C@H](C)NP(=O)(CO[C@H](C)Cn1cnc2c(N)ncnc21)Oc1ccccc1` (stereo partly drawn) [Ala-isopropyl], in the series with HIV-1 [2] (setting [11]), 0.01 µM corresponded to half-maximal inhibition (IC50). The compound also came in with an A/B activity in the series on HIV-1 [3] (setting [12]) of 12×.
As for `CCOC(=O)C(CC)NP(=O)(COC(C)Cn1cnc2c(N)ncnc21)Oc1ccccc1` (stereo not drawn) [GS-7342], in series [4], the “Human Plasma Stability (HP) product” value is recorded as “Met. Y” and the “Human Plasma Stability (HP) t1/2” value is listed as 103. Further, the “MT-2 extract hydrolysis product” value in series [5] is reported as “Met. X & PMPA”. For the same compound, in [6], the PLCE hydrolysis product result is “Met. X”. In addition, in series [7], the “PMPA AUC in PBMC Mean” value is listed as 1060, the “PMPA AUC in Plasma Mean” value was found to be 4.6, the “PBMC/Plasma Exposure Ratio” value was 230 and the “Prodrug in Plasma” value is “YES”. In the series on HIV-1 [3], this compound had an IC50 of 0.004 µM. In the series on HIV-1 [3] (IC50 relative to PMPA), the Fold change was 1,250×. Further, the 50% inhibitory concentration (IC50) in the series with HIV-1 [3] (read-out: HIV IC50) was determined as 0.004 µM.
On to `CCOC(=O)CNP(=O)(CO[C@H](C)Cn1cnc2c(N)ncnc21)Oc1ccccc1` (single isomer, unassigned) [GS-7335], for which, in the series on HIV-1 [3], the Fold change was determined as 5× and the IC50 was determined as 1 µM.
In the case of `Cc1cn([C@H]2C=C[C@@H](CO)O2)c(=O)[nH]c1=O` [d4T], the IC50 in the series with HIV-1 [1] is 8 ± 2.5 µM.
In the series on HIV-1 [3], `COC(=O)C(Cc1ccccc1)NP(=O)(COC(C)Cn1cnc2c(N)ncnc21)Oc1ccccc1` (single isomer, unassigned) [GS-7003a] had a Fold change of 500× and an IC50 of 0.01 µM.
In the case of `CCOC(=O)[C@H](C)N[P@@](=O)(CO[C@H](C)Cn1cnc2c(N)ncnc21)Oc1ccccc1` (mixture of isomers) [Ala-ethyl, Phenyl PMPA, Ethyl L-Alanyl Amidate], the CC50 with MT-2 cells [8] stood at 60 µM. For the same compound, the Fold change in the series with HIV-1 [3] (IC50 relative to PMPA) is reported as 250×. The compound also registered an A/B activity in the series on HIV-1 [3] (setting [12]) of 10×. For the same compound, in the series on HIV-1 [3] (setting [13]), the IC50 was 0.02 µM.
For `Nc1ncnc2c1ncn2CCOCP(=O)(O)O` [Adefovir (PMEA), 9-[2-(phosphonomethoxy)ethyl]adenine], the IC50 in the series with HIV-1 [1] was 13.4 ± 4.2 µM.
Take `COC(=O)[C@H](Cc1ccccc1)NP(=O)(CO[C@H](C)Cn1cnc2c(N)ncnc21)Oc1ccccc1` (stereo partly drawn) [Phe-methylester]: in the series on MT-2 cells [8], the CC50 is 60 µM. In the series on HIV-1 [3], this compound gave an A/B activity of 10×, a Fold change of 170× and a half-maximal inhibitory concentration (IC50) of 0.03 µM.
For `Cc1c(O)cccc1C(=O)N[C@@H](CSc1ccccc1)[C@H](O)CN1C[C@H]2CCCC[C@H]2C[C@H]1C(=O)NC(C)(C)C` [Nelfinavir], in the series with HIV-1 [1], the IC50 was 0.006 ± 0.002 µM.
With `COC(=O)[C@H](C)NP(=O)(CO[C@H](C)Cn1cnc2c(N)ncnc21)Oc1ccccc1` (mixture of isomers) [Ala-methylester], the Fold change in the series with HIV-1 [3] (IC50 relative to PMPA) turned out to be 200×. In addition, the A/B activity with HIV-1 [3] (setting [12]) came to 20×. The IC50 with HIV-1 [3] (setting [13]) turned out to be 0.025 µM. The compound further gave a CC50 with MT-2 cells [9] of 80 µM.
Regarding `COC(=O)C(C)NP(=O)(COC(C)Cn1cnc2c(N)ncnc21)Oc1ccccc1` (single isomer, unassigned) [GS-6957a], in the series with HIV-1 [3], the Fold change was determined as 670× and half-maximal inhibition (IC50) required 0.0075 µM.
The corresponding values for `COC(=O)[C@H](C)NP(=O)(CO[C@H](C)Cn1cnc2c(N)ncnc21)Oc1ccccc1` (single isomer, unassigned) [GS-6957b] are 33× and 0.15 µM.
As to `CCOC(=O)CNP(=O)(CO[C@H](C)Cn1cnc2c(N)ncnc21)Oc1ccccc1` (stereo partly drawn) [GS-7119], the CC50 in the series on MT-2 cells [8] was over 100 µM. In addition, in [7], the “PMPA AUC in PBMC Mean” value was found to be 530, the “PMPA AUC in Plasma Mean” value is listed as 6.11, the “PBMC/Plasma Exposure Ratio” value was 87 and the “Prodrug in Plasma” value is recorded as “YES”. Also, in the series with HIV-1 [3], the Fold change was 100× and the IC50 was found to be 0.05 µM.
As for `COC(=O)C(Cc1ccccc1)NP(=O)(COC(C)Cn1cnc2c(N)ncnc21)Oc1ccccc1` (single isomer, unassigned) [GS-7003b], in the series with HIV-1 [3], the Fold change is on record as 50× and the half-inhibitory concentration (IC50) was 0.1 µM.
Consider `CCOC(=O)[C@H](CC)NP(=O)(CO[C@H](C)Cn1cnc2c(N)ncnc21)Oc1ccccc1` (stereo partly drawn) [ABA-ethyl], for which, in the series on MT-2 cells [8], the CC50 is over 100 µM. In the series on HIV-1 [3], the A/B activity was 7.5×; the Fold change is 625×; the midpoint of inhibition, the IC50, lay at 0.008 µM.
As to `Cc1cn([C@H]2C[C@H](N=[N+]=[N-])[C@@H](CO)O2)c(=O)[nH]c1=O` [AZT], in the series on HIV-1 [1], the 50% inhibitory concentration (IC50) was 0.17 ± 0.08 µM.
As to `C[C@H](Cn1cnc2c(N)ncnc21)OCP(=O)(O)O` [PMPA, 9-[2-(phosphonomethoxy)propyl]adenine], in series [10], the “Metabolites (% of Total Peak Area): PMPApp” value is recorded as 16%. Besides, the half-maximal inhibitory concentration (IC50) with HIV-1 [1] was 6.3 ± 3.3 µM; with HIV-1 [2] (setting [11]), 5 µM; with HIV-1 [2] (Human immunodeficiency virus 1, MT2, read-out: HIV-1 Activity IC50) it was 5 µM. This compound registered a Fold change in the series with HIV-1 [3] of 1×. In addition, the CC50 in “in vitro” is 6000 µM.
